Measured values reported in patent US8889919B2, “Cyclic compound, process for production of the cyclic compound, radiation-sensitive composition, and method for formation of resist pattern” (Mitsubishi Gas Chemical Company, Inc., priority 2009, dated 2014).

Assay: Solubility of compound in safety solvent
Assay type: physicochemical
Details: for Solubility in CHN: solvent cyclohexanone (CHN); for Solubility in PGME: solvent propylene glycol monomethyl ether (PGME)
Description: (1) Solubility of Compound in Safety Solvent
The compounds obtained in Synthesis Examples 1 to 6 and Synthesis 1 to 4 were evaluated for the solubility in propylene glycol monomethyl ether (PGME) and cyclohexanone (CHN).
B: 1.0 wt %≦dissolved amount<4.0 wt %
C: dissolved amount<1.0 wt %

SMILES	Solubility in CHN	Solubility in PGME
Oc1cc(O)c2cc1C(c1ccc(C3CCCCC3)cc1)c1cc(c(O)cc1O)C(c1ccc(C3CCCCC3)cc1)c1cc(c(O)cc1O)C(c1ccc(C3CCCCC3)cc1)c1cc(c(O)cc1O)C2c1ccc(C2CCCCC2)cc1 (centres unmarked) [CR-4A]	A (4.0 wt %≦amount)	B (1.0 wt %≦dissolved amount<4.0 wt %)
CC(C)Cc1ccc(C2c3cc(c(O)cc3O)C(c3ccc(CC(C)C)cc3)c3cc(c(O)cc3O)C(c3ccc(CC(C)C)cc3)c3cc(c(O)cc3O)C(c3ccc(CC(C)C)cc3)c3cc2c(O)cc3O)cc1 (centres unmarked) [CR-2A]	B (1.0 wt %≦dissolved amount<4.0 wt %)	C (dissolved amount<1.0 wt %)
Oc1cc(O)c2cc1C(c1ccc(-c3ccccc3)cc1)c1cc(c(O)cc1O)C(c1ccc(-c3ccccc3)cc1)c1cc(c(O)cc1O)C(c1ccc(-c3ccccc3)cc1)c1cc(c(O)cc1O)C2c1ccc(-c2ccccc2)cc1 (centres unmarked) [CR-3A]	A (4.0 wt %≦amount)	C (dissolved amount<1.0 wt %)
CC(C)c1ccc(C2c3cc(c(O)cc3O)C(c3ccc(C(C)C)cc3)c3cc(c(O)cc3O)C(c3ccc(C(C)C)cc3)c3cc(c(O)cc3O)C(c3ccc(C(C)C)cc3)c3cc2c(O)cc3O)cc1 (centres unmarked) [CR-1A]	A (4.0 wt %≦amount)	B (1.0 wt %≦dissolved amount<4.0 wt %)
